Data reported in patent US20250115582A1, “MOLECULAR GLUE DEGRADERS AND METHODS OF USING THE SAME” (Monte Rosa Therapeutics, Inc., priority 2022, published 2025).

Assays:
[1] = molecular target: CRBN/DDB1 (Homo sapiens, UniProt Q96SW2); assay: HTRF binding assay (thalidomide probe displacement from CRBN/DDB1); conditions: CRBN/DDB1 2.5 nM, Cy5-Thalidomide 100 nM, 30 min; geometric mean; read-out: HTRF_Thali_Disp_DR—geo_IC50
Procedure, shortened: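 Displacement of Cy5-thalidomide probe (100 nM) from CRBN/DDB1 (2.5 nM) with anti-His Tb cryptate in 20 mM HEPES, 20 mM NaCl, 0.2 mM TCEP, 0.2 mM EDTA, 0.005% Tween20; 10-point 1:3 series, 30 min ambient. HTRF 665/620 ratio; IC50 by 4-parameter fit, Ki via Cheng-Prusoff.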

[2] = molecular target: T1, CK1α (Homo sapiens, UniProt P48729+Q96SW2); assay: CK1α NanoBiT assay (HiBiT-tagged CSNK1A1 in HEK293 clonal line); type: cell-based; conditions: HEK293 HiBiT-CSNK1A1/LgBiT cells, 24 h incubation, luminescence
T1 construct: HEK293 clonal line with CRISPR KI HiBiT tag on CSNK1A1; host or cells: HEK293 clonal line, CRISPR HiBiT knock-in at CSNK1A1, stably expressing LgBiT
Procedure, shortened: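 HiBiT knock-in CSNK1A1 HEK293 cells stably expressing LgBiT were plated at 5000 cells/well in DMEM/10% FBS with 0.2% Endurazine live-cell substrate and pre-incubated 16 h. Compound was added to a final […] for 24 h at 37 °C before the luminescence read. Signal was normalised to plate controls, and DC50 came from a 3-parameter logistic fit (hillslope 1).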

T1 sequence (P48729 whole entry): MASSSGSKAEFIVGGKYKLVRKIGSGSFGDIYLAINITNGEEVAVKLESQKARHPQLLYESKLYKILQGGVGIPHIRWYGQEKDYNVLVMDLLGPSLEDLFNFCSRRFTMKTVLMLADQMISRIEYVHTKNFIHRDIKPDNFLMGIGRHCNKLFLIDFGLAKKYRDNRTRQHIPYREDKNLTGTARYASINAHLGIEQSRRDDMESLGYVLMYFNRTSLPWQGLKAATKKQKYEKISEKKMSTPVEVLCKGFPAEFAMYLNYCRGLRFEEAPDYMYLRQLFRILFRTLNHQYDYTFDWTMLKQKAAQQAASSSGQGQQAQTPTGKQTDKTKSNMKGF
T1 sequence (Q96SW2 whole entry): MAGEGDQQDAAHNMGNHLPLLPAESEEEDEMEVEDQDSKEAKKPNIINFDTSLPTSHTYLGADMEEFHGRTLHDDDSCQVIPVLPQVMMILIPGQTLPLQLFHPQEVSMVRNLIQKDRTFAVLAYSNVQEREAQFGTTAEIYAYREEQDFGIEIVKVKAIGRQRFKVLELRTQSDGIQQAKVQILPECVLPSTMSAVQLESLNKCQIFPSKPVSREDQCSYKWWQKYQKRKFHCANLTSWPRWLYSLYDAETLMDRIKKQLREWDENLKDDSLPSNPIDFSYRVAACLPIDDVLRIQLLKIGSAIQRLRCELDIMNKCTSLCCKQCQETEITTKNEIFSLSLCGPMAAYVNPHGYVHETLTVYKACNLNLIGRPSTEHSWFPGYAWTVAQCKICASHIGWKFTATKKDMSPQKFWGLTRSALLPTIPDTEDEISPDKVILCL
T1 sequence (Q16531 2-1140 partner limits assumed): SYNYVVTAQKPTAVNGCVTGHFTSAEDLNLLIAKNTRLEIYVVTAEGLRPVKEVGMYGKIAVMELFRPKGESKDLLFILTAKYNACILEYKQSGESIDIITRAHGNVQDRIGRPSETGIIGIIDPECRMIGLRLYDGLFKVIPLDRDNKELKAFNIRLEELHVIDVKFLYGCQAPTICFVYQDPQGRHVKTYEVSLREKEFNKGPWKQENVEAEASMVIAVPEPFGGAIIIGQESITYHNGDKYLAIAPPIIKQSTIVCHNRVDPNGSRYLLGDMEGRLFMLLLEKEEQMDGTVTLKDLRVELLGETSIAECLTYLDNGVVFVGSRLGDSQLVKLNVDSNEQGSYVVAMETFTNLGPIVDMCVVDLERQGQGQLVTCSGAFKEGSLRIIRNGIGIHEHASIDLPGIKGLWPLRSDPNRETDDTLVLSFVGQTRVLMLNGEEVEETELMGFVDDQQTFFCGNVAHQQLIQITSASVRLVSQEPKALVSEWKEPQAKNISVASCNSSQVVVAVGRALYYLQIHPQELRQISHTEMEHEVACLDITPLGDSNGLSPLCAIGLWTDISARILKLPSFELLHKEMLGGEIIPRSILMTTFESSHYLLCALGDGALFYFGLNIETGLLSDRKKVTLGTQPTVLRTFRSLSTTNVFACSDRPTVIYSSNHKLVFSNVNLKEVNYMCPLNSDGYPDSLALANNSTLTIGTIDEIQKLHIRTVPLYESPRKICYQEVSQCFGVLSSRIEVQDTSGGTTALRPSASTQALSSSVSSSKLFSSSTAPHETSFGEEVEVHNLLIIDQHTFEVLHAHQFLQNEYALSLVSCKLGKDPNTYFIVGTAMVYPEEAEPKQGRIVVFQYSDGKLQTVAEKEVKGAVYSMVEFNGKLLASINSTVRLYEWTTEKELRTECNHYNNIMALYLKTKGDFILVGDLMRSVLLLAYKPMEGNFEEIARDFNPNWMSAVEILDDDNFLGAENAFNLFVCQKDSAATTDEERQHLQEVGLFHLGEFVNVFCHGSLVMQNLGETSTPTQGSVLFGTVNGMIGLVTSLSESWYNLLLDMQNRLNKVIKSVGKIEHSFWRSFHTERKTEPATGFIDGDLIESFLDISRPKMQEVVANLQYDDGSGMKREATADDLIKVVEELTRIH
Sequence of CRBN/DDB1 (Q96SW2 whole entry): as the sequence (Q96SW2 whole entry) above
Sequence of CRBN/DDB1 (Q16531 whole entry partner): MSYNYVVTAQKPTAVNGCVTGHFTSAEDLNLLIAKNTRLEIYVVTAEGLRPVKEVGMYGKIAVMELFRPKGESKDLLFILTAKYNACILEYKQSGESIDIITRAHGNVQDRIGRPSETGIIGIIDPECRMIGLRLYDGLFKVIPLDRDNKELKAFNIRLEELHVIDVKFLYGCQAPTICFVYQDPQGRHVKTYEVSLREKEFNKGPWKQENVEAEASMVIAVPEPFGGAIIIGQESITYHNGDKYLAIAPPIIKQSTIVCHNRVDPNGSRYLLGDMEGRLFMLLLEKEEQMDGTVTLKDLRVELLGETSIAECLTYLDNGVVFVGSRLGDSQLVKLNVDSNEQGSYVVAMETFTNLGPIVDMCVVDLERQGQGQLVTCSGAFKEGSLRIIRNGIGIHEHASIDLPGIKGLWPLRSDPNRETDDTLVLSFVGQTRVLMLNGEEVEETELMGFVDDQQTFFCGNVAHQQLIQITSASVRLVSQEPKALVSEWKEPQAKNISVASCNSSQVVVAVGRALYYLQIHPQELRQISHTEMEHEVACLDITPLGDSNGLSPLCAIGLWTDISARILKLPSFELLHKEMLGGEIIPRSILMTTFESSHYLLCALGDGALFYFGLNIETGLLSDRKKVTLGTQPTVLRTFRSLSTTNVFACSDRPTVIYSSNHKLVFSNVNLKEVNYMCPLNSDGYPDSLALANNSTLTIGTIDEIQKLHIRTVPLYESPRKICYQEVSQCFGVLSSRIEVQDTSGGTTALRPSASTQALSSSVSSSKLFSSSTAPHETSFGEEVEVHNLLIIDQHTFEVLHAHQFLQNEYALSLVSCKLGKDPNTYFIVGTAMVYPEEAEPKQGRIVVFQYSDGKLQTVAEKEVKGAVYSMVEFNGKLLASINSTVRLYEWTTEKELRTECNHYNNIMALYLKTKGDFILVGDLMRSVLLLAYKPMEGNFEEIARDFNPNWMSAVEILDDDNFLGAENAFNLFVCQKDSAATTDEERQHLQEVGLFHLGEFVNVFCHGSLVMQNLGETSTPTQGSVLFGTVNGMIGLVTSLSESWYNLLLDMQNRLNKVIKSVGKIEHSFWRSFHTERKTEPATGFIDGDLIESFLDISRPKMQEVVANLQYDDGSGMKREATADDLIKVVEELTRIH

SMILES | IC50 [1] [nM] | DC50 [2] [µM]
O=C1CCC(N2Cc3cc(NC(=O)c4ccc(Cl)cc4)ccc3C2=O)C(=O)N1 (stereo not shown) [Compound 147] | 100 to 1000 | < 0.1
O=C1CCC(N2Cc3cc(NC(=O)c4ncn(-c5ccccc5)c4C(F)(F)F)ccc3C2=O)C(=O)N1 (stereo not shown) [Compound 154, N-(2-(2,6-dioxopiperidin-3-yl)-1-oxoisoindolin-5-yl)-1-phenyl-5-(trifluoromethyl)-1H-imidazole-4-carboxamide] | 100 to 1000 | < 0.1
